Measurements: US8906906B2, “Viral replication inhibitors” (Katholieke Universiteit Leuven, priority 2009, dated 2014)

Key:
[1] = molecular target: T1, His6-tagged HIV-1 integrase / flag-LEDGF/p75 interaction (Human immunodeficiency virus type 1 group M subtype B, UniProt P04585); assay: AlphaScreen assay of LEDGF-integrase interaction inhibition; type: binding; details: for IC50: compounds tested from 0.1 up to 100 μM; for inhibition at 100 µM: read-out: % inhibition at 100 μM in IN-LEDGF alphascreen (values marked *)
T1 construct: His6-tagged HIV-1 integrase; made in house
Experimental: Alphascreen Assay to Measure the LEDGF-Integrase Interaction Inhibitory Activity of Compounds of the Invention
The AlphaScreen assay was performed according to the manufacturer's protocol (Perkin Elmer, Benelux). Reactions were performed in 25 μl final volume in 384-well Optiwell™ microtiter plates (Perkin Elmer). The reaction buffer contained 25 mM Tris-HCl (pH 7.4), 150 mM NaCl, 1 mM MgCl2, 0.01% (v/v) Tween-20 and 0.1% (w/v) bovine serum albumin. His6-tagged integrase (300 nM final concentration) was incubated with the compounds for 30 min at 4° C. The compounds were added at varying concentrations spanning a wide range from 0.1 up to 100 μM. Afterwards 100 nM flag-LEDGF/p75 was added and incubation was prolonged for an additional hour at 4° C. Subsequently 5 μl of Ni-chelate-coated acceptor beads and 5 μl anti-flag donor beads were added to a final concentration of 20 μg/ml of both beads. Proteins and beads were incubated for 1 h at 30° C. in order to allow association to occur. Exposure of the reaction to direct light was omitted as much as possible and the emission of light from the acceptor beads was measured in the EnVision plate reader (Perkin Elmer, Benelux) and analyzed using the EnVision manager software. IN/DNA binding was analyzed in a similar setting using His6-tagged integrase (1 μM final concentration) and an oligodeoxynucleotide mimicking the IN ELISA oligonucleotide substrate (30 nM final concentration). Counterscreens with JPO2 or PogZ, respectively, were essentially performed as described previously.
Expression and purification of recombinant proteins: His6-tagged HIV-1 integrase, 3×flag-tagged LEDGF/p75, MBP-JPO2 and MBP-PogZ were purified for AlphaScreen applications as described previously 23,25,56.

[2] = Cytotoxicity in mock-infected MT-4 cells (MTT); type: cell-based; details: human, read-out: CC50 in MT4-IIIB (μm)
Experimental: A rapid and automated assay procedure was used for the in vitro evaluation of anti-HIV agents. An HTLV-1 transformed T4-cell line MT-4, which was previously shown to be highly susceptible to and permissive for HIV infection, served as the target cell line. Inhibition of the HIV-induced cytopathogenic effect was used as the end point. The viability of both HIV-and mock-infected cells was assessed spectrophotometrically via in situ reduction of 3-(4,5-dimethylthiazol-2-yl)-2,5-diphenyltetrazolium bromide (MTT). The 50% cytotoxic concentration (CC50 in μg/ml) was defined as the concentration of compound that reduced the absorbance of the mock-infected control sample by 50%. The percent protection achieved by the compound in HIV-infected cells was calculated by the following formula: […]
Examples of inhibition of cell proliferation by particular compounds of formula (I) can be found by looking at the respective CC50 values in the MT-4 cell line.
Cells: MT-4 cells (Miyoshi et al., 1982) were grown and maintained in RPMI 1640 medium supplemented with 10% heat-inactivated fetal calf serum, 2 mM I-glutamine, 0.1% sodium bicarbonate, and 20 æg of gentamicin per ml.

SMILES | IC50 [1] | CC50 [2] | inhibition at 100 µM [1]
CCCC(C(=O)O)c1c(C)nc(N(C)C)nc1-c1ccccc1 (stereo not shown) [cpd 2] | 36.7 µM | 164 µM | 
CCCC(C(=O)O)c1c(C)nc(/C=C/c2ccccc2)nc1-c1ccccc1 (stereo not shown) [cpd 6] | 45.6 µM | 98.7 µM | 
CCCC(C(=O)O)c1c(C)nc(-c2ccccc2Cl)nc1-c1ccc(C)cc1 (stereo not shown) [cpd 18] | 89.9 µM | 125 µM | 
CCCC(C(=O)O)c1c(C)nc(N2CCN(C)CC2)nc1-c1ccc(C)cc1 (stereo not shown) [cpd 32] | 53.7 µM | > 250 µM | 
CCCC(C(=O)O)c1c(C)nc(N2CC(C)CC(C)C2)nc1-c1ccc(C)cc1 (stereo not shown) [cpd 34] | 17.5 µM | 57 µM | 
CCCC(C(=O)O)c1c(C)nc(N2CCCCCC2)nc1-c1ccc(C)cc1 (stereo not shown) [cpd 36] | 11.2 µM | 58 µM | 
CCCC(C(=O)O)c1c(C)nc(N2CCc3ccccc3C2)nc1-c1ccc(C)cc1 (stereo not shown) [cpd 42] | 17.3 µM | 26 µM | 
CCCC(C(=O)O)c1c(C)nc(N2CCCN(Cc3ccccc3)CC2)nc1-c1ccc(C)cc1 (stereo not shown) [cpd 44] | 11 µM | 7 µM | 
CCCC(C(=O)O)c1c(C)nc(N2CCCC(c3nc(C(C)C)no3)C2)nc1-c1ccc(C)cc1 (stereo not shown) [cpd 46] | 80.8 µM | 42 µM | 
CCCC(C(=O)O)c1c(C)nc(N2CCCC(Oc3ccccc3)C2)nc1-c1ccc(C)cc1 (stereo not shown) [cpd 48] | 9.49 µM | 25 µM | 
CCCC(C(=O)O)c1c(C)nc(N2CCCC(c3ccccc3)C2)nc1-c1ccc(C)cc1 (stereo not shown) [cpd 50] | 82.2 µM | 28 µM | 
CCCC(C(=O)O)c1c(C)nc(N2CC[C@H](N(C)C)C2)nc1-c1ccc(C)cc1 (stereo partly shown) [cpd 52] | 3.62 µM | 101 µM | 
CCCC(C(=O)O)c1c(C)nc(N2CCC(NC(=O)c3ccccc3)CC2)nc1-c1ccc(C)cc1 (stereo not shown) [cpd 54] | 3.9 µM | 67 µM | 
CCCC(C(=O)O)c1c(C)nc(-c2ccccc2)nc1-c1ccc(C)c(C)c1 (stereo not shown) [cpd 66] | 28.3 µM | 120 µM | 
CCCC(C(=O)O)c1c(C)nc(-c2ccccc2)nc1-c1ccc2ccccc2c1 (stereo not shown) [cpd 68] |  | 53 µM | 61%
CCCC(C(=O)O)c1c(C)nc(-c2ccccc2)nc1-c1ccc2c(ccn2C)c1 (stereo not shown) [cpd 74] |  | 129 µM | 46%
CCCC(C(=O)O)c1c(C)nc(-c2ccccc2)nc1N1CCc2ccccc2C1 (stereo not shown) [cpd 76] | 93 µM | 74 µM | 
CCCC(C(=O)O)c1c(C)nc(-c2ccccc2)nc1Oc1ccccc1 (stereo not shown) [cpd 78] |  | 102 µM | 58%
CCCC(C(=O)O)c1c(C)nc(-c2ccccc2)nc1-c1ccc2c(c1)OCCN2C (stereo not shown) [cpd 86] |  | 118 µM | 46%
CCCC(C(=O)O)c1c(C)nc(-c2ccccc2)nc1-c1ccc2sccc2c1 (stereo not shown) [cpd 88] | 66.7 µM | 121 µM | 
CCCC(C(=O)O)c1c(C)nc(-c2ccccc2)nc1-c1ccc2c(c1)CCCO2 (stereo not shown) [cpd 90] | 61.9 µM | 125 µM | 
CCCC(C(=O)O)c1c(C)nc(-c2ccccc2)nc1-c1ccc2ccn(C)c2c1 (stereo not shown) [cpd 92] |  | 113 µM | 51%
CCCC(C(=O)O)c1c(C)nc(-c2ccccc2)nc1-c1ccc2[nH]c(=O)[nH]c2c1 (stereo not shown) [cpd 100] | 70.8 µM | 96 µM | 
CCCC(C(=O)O)c1c(C)nc(-c2ccccc2)nc1-c1ccc(C(C)C)cc1 (stereo not shown) [cpd 106] | 56.6 µM | 32 µM | 
CCCC(C(=O)O)c1c(C)nc(-c2ccccc2)nc1-c1ccc(C(F)(F)F)cc1 (stereo not shown) [cpd 108] | 100 µM | 47 µM | 
CCCC(C(=O)O)c1c(C)nc(-c2ccccc2)nc1-c1ccc(Cl)cc1OC (stereo not shown) [cpd 110] |  | 94 µM | 40%
CCCC(C(=O)O)c1c(C)nc(-c2ccccc2)nc1Cc1ccccc1 (stereo not shown) [cpd 117] | 6.1 µM | > 250 µM | 
CCCC(C(=O)O)c1c(C)nc(-c2ccccc2)nc1-c1ccc(C)cc1OC (stereo not shown) [cpd 120] |  | 124 µM | 48%
Cc1ccc(-c2nc(N3CCCCC3)nc(C)c2C(Cc2ccccc2)C(=O)O)cc1 (stereo not shown) [cpd 126] | 27 µM | 67 µM | 
